According to patent US4178443A, “Derivatives of 7 [-substituted oxyimins acetamido] cephalosporins” (Hoffmann-La Roche Inc., priority 1977, dated 1979):
Values after ≈ are worked out from the molar mass of the structure shown.

Assays:
Proteus mirabilis [1] = test: Activity in vivo: survival of mice infected intraperitoneally with Proteus mirabilis; settings: sc, 96 h; mice infected i.p. with Proteus mirabilis; compound s.c. one hour after infection; survival on 4th day; by interpolation; read-out: CD50 (dosage at which 50% of the mice survive)
Method: Groups of 10 mice are infected intraperitoneally with an aqueous suspension of Proteus mirabilis. One hour after the infection the test compound is administered subcutaneously. The number of surviving mice is determined on the 4th day. Various dosages of test compound are administered and the dosage at which 50% of the mice survice (CD50, mg/kg) is determined by interpolation.

Proteus vulgaris = test: Activity in vitro: Minimum Inhibitory Concentration; assay type: cell-based
Text: (§1) Activity in vitro: Minimum Inhibitory Concentration (μg/ml)

[2] = test system: Staphylococcus aureus Penicillin-resistant strain; test: as above; assay type: cell-based
Text: as §1

Proteus mirabilis [3] = test: as above; assay type: cell-based
Text: as §1

Klebsiella pneumoniae = test: as above; assay type: cell-based
Text: as §1

Proteus rettgeri = test: as above; assay type: cell-based; settings: Providencia rettgeri
Text: as §1

[4] = test system: Staphylococcus aureus ATCC 6538; test: as above; assay type: cell-based; settings: ATCC6538
Text: as §1

Haemophilus influenzae = test: as above; assay type: cell-based
Text: as §1

Escherichia coli = test: as above; assay type: cell-based
Text: as §1

[5] = Toxicity (mice, 24 hour values); settings: mouse, in vivo
Method: TOXICITY (mice, 24 hour values)

[6] = Haemophilus influenzae strain 1
[7] = Haemophilus influenzae strain 2
[8] = Haemophilus influenzae strain 3
[9] = Haemophilus influenzae strain 4
[10] = Haemophilus influenzae strain 5
[11] = Haemophilus influenzae strain 6
[12] = Haemophilus influenzae strain 7

SMILES	ED50 (Proteus mirabilis [1]) [mg/kg]	MIC (Proteus vulgaris) [µg/mL]	MIC [2] [µg/mL]	MIC (Proteus mirabilis [3]; Proteus mirabilis strain 1) [µg/mL]	MIC (Proteus mirabilis [3]; Proteus mirabilis strain 2) [µg/mL]	MIC (Klebsiella pneumoniae) [µg/mL]	MIC (Proteus rettgeri) [µg/mL]	MIC [4] [µg/mL]	MIC (Haemophilus influenzae; [6]) [µg/mL]	MIC (Haemophilus influenzae; [7]) [µg/mL]	MIC (Haemophilus influenzae; [8]) [µg/mL]	MIC (Haemophilus influenzae; [9]) [µg/mL]	MIC (Haemophilus influenzae; [10]) [µg/mL]	MIC (Haemophilus influenzae; [11]) [µg/mL]	MIC (Haemophilus influenzae; [12]) [µg/mL]	MIC (Escherichia coli; Escherichia coli strain 1) [µg/mL]	MIC (Escherichia coli; Escherichia coli strain 2) [µg/mL]	LD50 at 24 h ([5]; iv, mice, 24 hour values) [mg/kg]	also measured
CON=C(C(=O)N[C@@H]1C(=O)N2C(C(=O)O)=C(CSc3ccn(N)c(=O)n3)CS[C@H]12)c1ccco1 [Compound B, (7R)-7-[2-(2-furyl)-2-(methoxyimino)acetamido]-3-[[(1-amino-1,2-dihydro-2-oxo-4-pyrimidinyl)thio]-methyl]-3-cephem-4-carboxylic acid]	3	40 (≈ 79 µM)	1.2 (≈ 2.37 µM)	10 (≈ 19.7 µM)	40 (≈ 79 µM)	20 (≈ 39.5 µM)	2.5 (≈ 4.94 µM)	0.16 (≈ 0.316 µM)	2.5 (≈ 4.94 µM)	0.63 (≈ 1.24 µM)	0.63 (≈ 1.24 µM)	0.31 (≈ 0.612 µM)	0.31 (≈ 0.612 µM)	0.31 (≈ 0.612 µM)	0.31 (≈ 0.612 µM)	2.5 (≈ 4.94 µM)	20 (≈ 39.5 µM)	1000 to 2000	–
CON=C(C(=O)N[C@@H]1C(=O)N2C(C(=O)O)=C(CSc3n[nH]c(=O)c(=O)n3C)CS[C@H]12)c1ccco1 [Compound D, (7R)-7-[2-(2-furyl)-2-(methoxyimino)acetamido]-3-[[(1,4,5,6-tetrahydro-4-methyl-5,6-dioxo-as-triazin-3-yl)thio]methyl]-3-cephem-4-carboxylic acid]	0.7	1.2 (≈ 2.3 µM)	0.63 (≈ 1.21 µM)	10 (≈ 19.1 µM)	20 (≈ 38.3 µM)	5 (≈ 9.57 µM)	0.63 (≈ 1.21 µM)	0.63 (≈ 1.21 µM)	2.5 (≈ 4.78 µM)	0.31 (≈ 0.593 µM)	0.31 (≈ 0.593 µM)	0.31 (≈ 0.593 µM)	0.16 (≈ 0.306 µM)	0.16 (≈ 0.306 µM)	0.16 (≈ 0.306 µM)	0.16 (≈ 0.306 µM)	5 (≈ 9.57 µM)	500 to 1000	LD50 at 24 h ([5]; po, mice, 24 hour values): > 5000 mg/kg; LD50 at 24 h ([5]; sc, mice, 24 hour values): > 4000 mg/kg
Cn1c(SCC2=C(C(=O)O)N3C(=O)[C@@H](NC(=O)C(=NOCC(N)=O)c4ccco4)[C@H]3SC2)n[nH]c(=O)c1=O [Compound G, (7R)-7-[2-[(carbamoylmethoxy)imino]-2-(2-furyl)-acetamido]-3-[[(1,4,5,6-tetrahydro-4-methyl-5,6-dioxo-as-triazin-3-yl)thio]methyl]-3-cephem-4-carboxylic acid]	0.8	1.2 (≈ 2.12 µM)	1.2 (≈ 2.12 µM)	5 (≈ 8.84 µM)	10 (≈ 17.7 µM)	2.5 (≈ 4.42 µM)	0.63 (≈ 1.11 µM)	1.2 (≈ 2.12 µM)	5 (≈ 8.84 µM)	0.63 (≈ 1.11 µM)	0.31 (≈ 0.548 µM)	0.63 (≈ 1.11 µM)	0.31 (≈ 0.548 µM)	0.63 (≈ 1.11 µM)	0.63 (≈ 1.11 µM)	0.31 (≈ 0.548 µM)	5 (≈ 8.84 µM)	> 4000	–
CON=C(C(=O)N[C@@H]1C(=O)N2C(C(=O)O)=C(CSc3nc(=O)c(=O)[nH]n3C)CS[C@H]12)c1ccccc1 [Compound C, (7R)-7-[2-(phenyl)-2-(methoxyimino)acetamido]-3-[[(1,2,5,6-tetrahydro-2-methyl-5,6-dioxo-as-triazin-3-yl)thio]methyl]-3-cephem-4-carboxylic acid]	0.6	10 (≈ 18.8 µM)	2.5 (≈ 4.69 µM)	10 (≈ 18.8 µM)	20 (≈ 37.6 µM)	20 (≈ 37.6 µM)	0.63 (≈ 1.18 µM)	2.5 (≈ 4.69 µM)	2.5 (≈ 4.69 µM)	0.16 (≈ 0.3 µM)	0.16 (≈ 0.3 µM)	0.16 (≈ 0.3 µM)	0.08 (≈ 0.15 µM)	0.08 (≈ 0.15 µM)	0.08 (≈ 0.15 µM)	1.2 (≈ 2.25 µM)	10 (≈ 18.8 µM)	1000 to 2000	–
CCn1nc(SCC2=C(C(=O)O)N3C(=O)[C@@H](NC(=O)C(=NOC)c4ccco4)[C@H]3SC2)[nH]c(=O)c1=O [Compound F]	0.85	20 (≈ 37.3 µM)	5 (≈ 9.32 µM)	20 (≈ 37.3 µM)	40 (≈ 74.6 µM)	40 (≈ 74.6 µM)	10 (≈ 18.6 µM)	5 (≈ 9.32 µM)	2.5 (≈ 4.66 µM)	0.31 (≈ 0.578 µM)	1.2 (≈ 2.24 µM)	0.16 (≈ 0.298 µM)	0.08 (≈ 0.149 µM)	0.08 (≈ 0.149 µM)	0.16 (≈ 0.298 µM)	1.2 (≈ 2.24 µM)	80 (≈ 149 µM)	–	LD50 at 24 h ([5]; iv): 1000 to 2000 mg/kg
CON=C(C(=O)N[C@@H]1C(=O)N2C(C(=O)O)=C(CSc3nc(=O)c(=O)[nH]n3C)CS[C@H]12)c1ccco1 [Compound A, (7R)-7-[2-(2-furyl)-2-(methoxyimino)acetamido]-3-[[(1,2,5,6-tetrahydro-2-methyl-5,6-dioxo-as-triazin-3-yl)thio]methyl]-3-cephem-4-carboxylic acid]	0.09	5 (≈ 9.57 µM)	5 (≈ 9.57 µM)	2.5 (≈ 4.78 µM)	5 (≈ 9.57 µM)	10 (≈ 19.1 µM)	0.63 (≈ 1.21 µM)	2.5 (≈ 4.78 µM)	1.2 (≈ 2.3 µM)	0.16 (≈ 0.306 µM)	0.16 (≈ 0.306 µM)	0.16 (≈ 0.306 µM)	0.08 (≈ 0.153 µM)	0.16 (≈ 0.306 µM)	0.08 (≈ 0.153 µM)	0.63 (≈ 1.21 µM)	40 (≈ 76.6 µM)	500 to 1000	LD50 at 24 h ([5]; po, mice, 24 hour values): > 5000 mg/kg; LD50 at 24 h ([5]; sc, mice, 24 hour values): > 4000 mg/kg
CON=C(C(=O)N[C@@H]1C(=O)N2C(C(=O)O)=C(CSc3nc(=O)c(=O)[nH]n3C)CS[C@H]12)c1cccs1 [Compound E]	1.15	10 (≈ 18.6 µM)	2.5 (≈ 4.64 µM)	10 (≈ 18.6 µM)	20 (≈ 37.1 µM)	40 (≈ 74.3 µM)	2.5 (≈ 4.64 µM)	2.5 (≈ 4.64 µM)	2.5 (≈ 4.64 µM)	0.16 (≈ 0.297 µM)	0.16 (≈ 0.297 µM)	0.16 (≈ 0.297 µM)	0.08 (≈ 0.149 µM)	0.08 (≈ 0.149 µM)	0.08 (≈ 0.149 µM)	2.5 (≈ 4.64 µM)	20 (≈ 37.1 µM)	–	LD50 at 24 h ([5]; iv): 2000 to 4000 mg/kg
